pIC50: −log10 of the molar value. Several values for one entry are separate records, joined by “and”; a condition that tells them apart may be missing. Equal values may be shown once. Read-outs that look alike come from different tables or passages of the source.
Columns and labels:
[1] = in vitro metabolic stability, murine microsomal assay; type: in vitro ADME, mouse; conditions: for half-life: mouse, liver microsomes, murine microsomal assay; for metabolic stability: murine microsomal, compared to A20
[2] = pharmacokinetics, single IP injection; type: in vivo, mouse; parameters: spinal cord AUC0-t / plasma AUC0-t / brain AUC0-t / liver AUC0-t: unit not given here; conditions: for biodistribution: IP, mice; for Cmax / Tmax: mouse; for Cmax: ip, 20 mg/kg; for plasma AUC0-t: 24 hr
Experimental: Further studies were conducted as in vivo experiments to evaluate the effect of A20 when injected into the mouse. To formulate the compound for intraperitoneal (IP) injection, A20 was tested for solubility in various buffers, pH conditions, and with cyclodextrins (e.g. Captisol). The formulation was prepared by first dissolving A20 powder in DMSO and followed by mixing with sunflower seed oil (SSO) prior to administration (in 6% DMSO/94% SSO). […] PK profiling experiments were then conducted with A20 to determine its absorption, distribution, metabolism, and excretion (ADME) properties. Mice were given a single IP injection of 20 mg/kg A20 and after 10, 30, 90, 180, 360, 960, 1440 min, three animals per time point were sacrificed and tissue was collected and subjected to mass spectrometry.
A study was conducted with A20 salt dissolved solely in PBS and injected at 20 mg/kg to match the previously described study of the free-base. […] The results from the brain, spinal cord, and liver tissues are particularly outstanding and indicate that significant levels of A20 salt remain even after the final collection at 24 hr time point.

[3] = biological target: T1, EphB4-Fc with EB2-His (Mus musculus, UniProt P54761); assay: Alpha assay EphB4-EB2; type: binding; conditions: for antagonism of EphB4-EB2 interaction: Alpha, ELISA, pulldown
T1 construct: soluble EphB ectodomains conjugated to Fc from R&D Systems; mouse EB2-His residues 18-232; purchased R&D Systems (EphB-Fc); Sino Biologicals (EphrinB-His)
T1 sequence (P54761 16-539 limits assumed): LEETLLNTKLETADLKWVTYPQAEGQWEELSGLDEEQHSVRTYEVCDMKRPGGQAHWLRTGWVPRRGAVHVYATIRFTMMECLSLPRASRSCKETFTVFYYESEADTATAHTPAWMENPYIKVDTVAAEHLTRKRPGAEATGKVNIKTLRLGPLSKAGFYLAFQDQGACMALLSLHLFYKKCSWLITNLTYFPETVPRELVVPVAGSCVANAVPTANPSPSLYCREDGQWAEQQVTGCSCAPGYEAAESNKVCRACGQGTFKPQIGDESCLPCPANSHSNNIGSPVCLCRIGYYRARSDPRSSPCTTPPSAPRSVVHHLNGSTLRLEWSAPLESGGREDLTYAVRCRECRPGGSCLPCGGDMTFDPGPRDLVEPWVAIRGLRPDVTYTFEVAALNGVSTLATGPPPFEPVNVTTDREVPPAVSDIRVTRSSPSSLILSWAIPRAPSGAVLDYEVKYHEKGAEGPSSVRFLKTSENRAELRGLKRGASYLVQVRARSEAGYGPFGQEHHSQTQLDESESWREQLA
Experimental: FIG. 5D depicts results from an alpha assay using EphB2-Fc or EphB4-Fc with EB2-His and increasing A20 concentrations to calculate IC50 determination (~10 μM, similar to that found in FIG. 5C).
Protein interaction assays were developed using soluble EphB ectodomains conjugated to Fc from R&D Systems (e.g., rat EphB1-Fc residues 18-538, which is 99.4% identical to human) and EphrinB ectodomains conjugated to His from Sino Biologicals (e.g., mouse EB2-His residues 18-232, which is 97.7% identical to human). Titrating concentrations of the EphB1-Fc ectodomain (or unconjugated Fc protein as negative control) was added with titrating amounts of the three different EphrinB ectodomains (EB1-His, EB2-His, or EB3-His) with 125 ng each of the Protein A donor, anti-6×-His acceptor beads, 2% DMSO, and 1× HiBlock buffer (all from PerkinElmer) in 384 well plates, and after 3 hr incubation at RT were read in an Envision Multilabel Reader 2102. […] No signal above background (<1,500) was detected for wells that contained an Fc control protein and the EB-His proteins or just the EphB1-Fc protein and no EB-His protein.
A20, E13, and other compounds from the top 32 hits were then characterized in pulldown assays. EphB1-Fc was immobilized onto Protein A agarose beads, then mixed with compounds and the soluble EB2-His ectodomain for 1 hr at RT, after which protein complexes were washed and then bound EB2 was detected by immunoblot using anti-His antibodies.

Question: For `Oc1ccc(CN2CCOCC2)c2cccnc12` [Compound 1, 5-(morpholinomethyl)quinolin-8-ol], which half-life [1] is on record?
Answer: 22 min

Question: With `Oc1ccc(CN2CCN(Cc3ccc(Br)cc3)CC2)c2cccnc12` [Compound 42, 5-((4-(4-bromobenzyl)piperazin-1-yl)methyl)quinolin-8-ol] as the compound, how does the “biodistribution” value ([2]; listed as QPB4-Bn) read?
Answer: significantly high levels of compound reach intended tissues (i.e., brain, spinal cord, liver, skin) and persist at high concentrations during the 24 hr period

Question: Which Cmax ([2]; brain, salt in PBS, IP 20 mg/kg, read-out: brain Cmax) does the source give for `Oc1c(Br)cc(CN2CCOCC2)c2cccnc12` [Compound 6, 4-((7-bromo-8-hydroxyquinolin-1-ium-5-yl)methyl)morpholin-4-ium chloride] here?
Answer: 7.03 µM and 2790 ng/mL

Question: And the Cmax ([2]; liver, salt in PBS, IP 20 mg/kg, read-out: liver Cmax)?
Answer: 22600 ng/mL and 57 µM

Question: And the Cmax ([2]; plasma, salt in PBS, IP 20 mg/kg, read-out: plasma Cmax)?
Answer: 2880 ng/mL and 7.27 µM

Question: And the Cmax ([2]; spinal cord, salt in PBS, IP 20 mg/kg, read-out: spinal cord Cmax)?
Answer: 3310 ng/mL and 8.35 µM

Question: What about the “brain AUC0-t” value ([2]; salt in PBS, IP 20 mg/kg) of the same compound?
Answer: 136,933

Question: And the “brain time of Cmax” value ([2]; salt in PBS, IP 20 mg/kg)?
Answer: 10 min

Question: What about the “liver AUC0-t” value ([2]; salt in PBS, IP 20 mg/kg) of the same compound?
Answer: 1,363,490

Question: What about the “plasma time of Cmax” value ([2]; salt in PBS, IP 20 mg/kg) of the same compound?
Answer: 10 min

Question: What about the “spinal cord AUC0-t” value ([2]; salt in PBS, IP 20 mg/kg) of the same compound?
Answer: 86,044

Question: And the “plasma AUC0-t” value ([2]; salt in PBS, IP 20 mg/kg)?
Answer: 81,039

Question: What about the “brain AUC0-t increase over the free-base” value ([2]; salt vs free-base) of the same compound?
Answer: > 20 fold

Question: And the “brain Cmax increase over the free-base” value ([2]; salt vs free-base)?
Answer: > 26 fold

Question: What about the “plasma AUC0-t increase over the free-base” value ([2]; salt vs free-base) of the same compound?
Answer: > 5.5 fold

Question: And the “plasma Cmax increase over the free-base” value ([2]; salt vs free-base)?
Answer: > 13 fold

Question: And the “spinal cord AUC0-t increase over the free-base” value ([2]; salt vs free-base)?
Answer: > 17 fold

Question: What about the “spinal cord Cmax increase over the free-base” value ([2]; salt vs free-base) of the same compound?
Answer: > 37 fold

Question: Which results are given for `Oc1c(I)cc(CN2CCOCC2)c2cccnc12` [Compound 7, 7-iodo-5-(morpholinomethyl)quinolin-8-ol]?
Answer: metabolic stability ([1]; listed as A20-1): longer in vitro half-life; metabolic stability ([1]; listed as A20-I): increased in vitro metabolic stability compared to A20

Question: For `COc1ccccc1N1CCN(Cc2cc(Br)c(O)c3ncccc23)CC1` [Compound 70, 7-bromo-5-((4-(2-methoxyphenyl)piperazin-1-yl)methyl)quinolin-8-ol], which half-life [1] is on record?
Answer: 136 min

Question: What about the “antagonism of EphB4-EB2 interaction” value [3] of the same compound?
Answer: very little if any effect on the EphB4-EB2 interaction

Question: Which “antagonism of EphB4-EB2 interaction” value [3] does the source give for `Oc1c(Cl)cc(CN2CCOCC2)c2cccnc12` [Compound 3, 7-chloro-5-(morpholinomethyl)quinolin-8-ol] here?
Answer: very little if any effect on the EphB4-EB2 interaction

Question: For `Oc1c(Br)cc(CN2CCOCC2)c2cccnc12` [Compound 5, 7-bromo-5-(morpholinomethyl)quinolin-8-ol], which “biodistribution” value [2] is on record?
Answer: distributes to plasma, brain, and spinal cord

Question: And the “brain AUC0-t” value ([2]; free base, IP 20 mg/kg)?
Answer: 6,684

Question: And the “spinal cord AUC0-t” value ([2]; free base, IP 20 mg/kg)?
Answer: 4,928

Question: And the “plasma AUC0-t” value ([2]; free base, IP 20 mg/kg)?
Answer: 14,636

Question: What about the Cmax ([2]; brain, free base, IP 20 mg/kg, read-out: brain Cmax) of the same compound?
Answer: 104 ng/mL and 323 nM

Question: What about the Tmax ([2]; brain, free base, IP 20 mg/kg, read-out: brain time of Cmax (converted)) of the same compound?
Answer: 10 min

Question: What about the Cmax ([2]; plasma, free base, IP 20 mg/kg, DMSO/SSO, read-out: plasma Cmax) of the same compound?
Answer: 214 ng/mL

Question: And the Cmax ([2]; plasma, free base, IP 20 mg/kg, read-out: plasma Cmax)?
Answer: 665 nM

Question: And the Tmax ([2]; plasma, free base, IP 20 mg/kg, read-out: plasma time of Cmax (converted))?
Answer: 10 min

Question: And the Cmax ([2]; spinal cord, free base, IP 20 mg/kg, read-out: spinal cord Cmax)?
Answer: 88 ng/mL and 273 nM

Question: And the half-life [1]?
Answer: 224 min

Question: And the pIC50 ([3]; EphB4-EB2)?
Answer: < 3.82

Source: patent publication US20260374739A1, “SMALL MOLECULAR WEIGHT CHEMICAL COMPOUND TO ANTAGONIZE EPH-EPHRIN TETRAMERIZATION AND INHIBIT BIDIRECTIONAL SIGNALING” (THE BOARD OF REGENTS OF THE UNIVERSITY OF TEXAS SYSTEM, priority 2022, published 2026)
